Values quoted from earlier work, collected in patent US8822429B2, “Citicoline for the treatment of glaucoma and ocular hypertension” (Omikron Italia S.r.l., priority 2010, dated 2014).

Details: taken orally

SMILES: C[N+](C)(C)CCOP(=O)(O)OP(=O)([O-])OC[C@H]1O[C@@H](n2ccc(N)nc2=O)[C@H](O)[C@@H]1O [Citicoline, cytidine-5′-diphosphocholine]
- excreted in the feces: less than 1%
- time of plasma peak after ingestion (first peak): 1 h
- time of second, larger plasma peak (larger peak following the first): 24 h
